# Columns and labels:
# THP-1 cells = assay: THP-1 cell growth in presence of ZA lipid coated stents or molecular ZA (Examples 6 and 7); assay type: cell-based; settings: Homo sapiens, THP-1, 96 h, 4 days of culture
# Procedure: To monitor cell growth in the presence of liposomes containing ZA, 5×10^5 THP-1 cells are plated into 24—well cluster plates (Corning Inc.) in complete RPMI-1640 medium at 1 mL volume. About 3-4 hours later, the lipid coated stents of Example 5 are added into the THP-1 cell culture (5×10^5 cells/mL). The cells in the presence of medium alone or treated with empty liposomes (no drug) served as a control. ZA in molecular form was added for comparison at a concentration of 5 and 1 μg/mL. After 4 days of culture, the cells in each culture were harvested and counted using a hemocytometer; viability was evaluated by trypan blue exclusion method.
# The two sets of samples were placed in cell cultures containing THP-1 macrophage type cells. HAp coated stents impregnated with molecular ZA (configuration B) are placed in 2 ml PBS dissolution media and rotated at a speed of 20 rpm at 37.2° C. Samples are taken at various time intervals and analyzed using HPLC.
# [1] = tested on: THP-1 (Human Monocytic Leukemia) cell culture; assay: THP-1 cell growth inhibition by ZA released from lipid bilayer stent coating (Example 16); assay type: cell-based; settings: THP-1, 96 h, 4 days
# Procedure: Hydroxyapatite coated stents were further coated with the lipid film in a manner similar to that described in Examples 12 and 13, except that the film contained 2 μg of zoledronic acid (ZA). The stents were added to THP-1 (Human Monocytic Leukemia) cell culture (5×10^5 cells/mL) and compared to ZA alone added at concentration of 5 and 1 μg/mL. After 4 days, the cells in each culture were harvested and counted.
structure (smiles),measurement,setting,value
"O=P(O)(O)C(O)(Cn1ccnc1)P(=O)(O)O [ZA, zoledronic acid]",inhibition at 1 µg/mL,THP-1 cells; 1 μg/mL,0.6%
same,inhibition at 5 µg/mL,THP-1 cells; 5 μg/mL,20%
same,inhibition at 1 µg/mL,[1]; 1 μg/mL,0.6%
same,inhibition at 5 µg/mL,[1]; 5 μg/mL,20%

# Source: patent publication US20080181928A1, “COATINGS FOR IMPLANTABLE MEDICAL DEVICES FOR LIPOSOME DELIVERY” (MIV Therapeutics, Inc., priority 2006, published 2008)
